Measured values taken from ChEMBL document CHEMBL5126522, “In vitro and in vivo evaluation of 211At-labeled fibroblast activation protein inhibitor for glioma treatment” (Bioorg Med Chem, 2022).
The source made the active and inactive calls.

Tests used:
U-87MG ATCC [1] = assay: Cytotoxicity against human U-87 MG cells assessed as reduction in cell viability incubated in radioactive medium for 12 hrs followed by incubation in non-radioactive medium for 24 hrs by CCK8 assay; assay type: functional, cell-based; settings: dose 12-92 kBq, time 36.0 hrs, tested as the 211At-labelled form, DDE = dose-dependent effect
U-87MG ATCC [2] = assay: Induction of cell cycle arrest in human U-87 MG cells assessed as increase in proportion of cells at S phase at 185 kBq incubated in radioactive medium for 12 hrs followed by incubation in non-radioactive medium for 24 hrs by PI staining based flow cytometry; assay type: functional; settings: time 36.0 hrs, tested as the 211At-labelled form
U-87MG ATCC [3] = assay: Inhibition of colony formation in human U-87 MG cells incubated in radioactive medium for 12 hrs followed by incubation in non-radioactive medium for 14 days by crystal violet staining based analysis; assay type: functional, cell-based; settings: dose 4.6-18.5 kBq, time 852.0 hrs, tested as the 211At-labelled form, DDE = dose-dependent effect
U-87MG ATCC [4] = assay: Induction of apoptosis in human U-87 MG cells assessed as fragmented and condensed chromatin at 18.5 to 185 kBq measured after 24 hrs by DAPI staining based confocal microscopy; assay type: functional, cell-based; settings: dose 18.5-185 kBq, tested as the 211At-labelled form
U-87MG ATCC [5] = assay: Anti-tumor activity against human U-87 MG cells xenografted in BALB/c nude mouse assessed as reduction in tumor growth administered IT measured every 3 days by electronic caliper analysis; assay type: functional; settings: dose 0.18-0.55 MBq, DDE = dose-dependent effect, tested as the 211At-labelled form
U-87MG ATCC [6] = assay: Antitumor activity against human U-87 MG cells xenografted in BALB/c nude mouse assessed as reduction in Ki67 expression in tumor at 0.55 MBq, it measured after 12 days by immunohistochemical analysis; assay type: functional, cell-based; settings: time 12.0 day, tested as the 211At-labelled form

N#C[C@@H]1CC(F)(F)CN1C(=O)CNC(=O)c1ccnc2ccc(OCCCN3CCN(C(=O)c4ccc([At])cc4)CC3)cc12
active: Activity (U-87MG ATCC [1]) Dde | Activity (U-87MG ATCC [2]) | inhibition (U-87MG ATCC [3]) Dde | Activity (U-87MG ATCC [4]) | Activity (U-87MG ATCC [5]) Dde | Activity (U-87MG ATCC [6])
